Experimental data from patent US6441168B1, “Stable crystalline salts of 5-methyltetrahydrofolic acid” (Eprova AG, priority 1999, dated 2002).
Where two headings read alike, the source gives them in different places.

Columns and labels:
[1] = in air, 25° C., 60% relative humidity
Procedure: The content of 5-methyltetrahydrofolic acid salt which is quoted in the examples was s determined by HPLC in each case and is given as % area. The water content was determined by a Karl Fischer method.
In order to determine the stabilities of the crystalline salts of 5-methyltetrahydrofolic acid, the substances were stored, together with comparison specimens, in air at 25° C. and at 60% relative humidity. The content of 5-methyltetrahydrofolic acid salt remaining was measured at periodic intervals and is given by comparison with the initial value.

SMILES	content of 5-methyltetrahydrofolic acid salt remaining, compared with the initial value ([1]; storage 0 months) [%]	content of 5-methyltetrahydrofolic acid salt remaining, compared with the initial value ([1]; storage 12 months) [%]	content of 5-methyltetrahydrofolic acid salt remaining, compared with the initial value ([1]; storage 3 months) [%]	content of 5-methyltetrahydrofolic acid salt remaining, compared with the initial value ([1]; storage 6 months) [%]	content of 5-methyltetrahydrofolic acid salt remaining, compared with the initial value ([1]; storage 18 months) [%]	content of 5-methyltetrahydrofolic acid salt remaining, compared with the initial value ([1]; storage 88 months) [%]	Solubility at 20° C. in 0.9% NaCl [%]	Solubility at 20° C. in water [%]
CN1c2c([nH]c(N)nc2=O)NC[C@@H]1CNc1ccc(C(=O)N[C@@H](CCC(=O)[O-])C(=O)[O-])cc1.[Ca+2] [Amorphous calcium salt of 5-methyl-(6S)-tetrahydrofolic acid] [reference compound]	100	84.2						
CN1c2c([nH]c(N)nc2=O)NC[C@@H]1CNc1ccc(C(=O)N[C@@H](CCC(=O)[O-])C(=O)[O-])cc1.[Ca+2] [Crystalline calcium salt of 5-methyl-(6S)-tetrahydrofolic ac] [calcium salt of 5-methyl-(6S)-tetrahydrofolic acid]	100	99.1	98.6	98.7	99.0	97.8		
CN1c2c([nH]c(N)nc2=O)NC[C@@H]1CNc1ccc(C(=O)N[C@@H](CCC(=O)[O-])C(=O)[O-])cc1.[Ca+2] [Type I, calcium salt of 5-methyl-(6S)-tetrahydrofolic acid]							1.6	1.1
CN1c2c([nH]c(N)nc2=O)NC[C@@H]1CNc1ccc(C(=O)N[C@@H](CCC(=O)[O-])C(=O)[O-])cc1.[Ca+2] [Type II, calcium salt of 5-methyl-(6S)-tetrahydrofolic acid]							5.8	3.8
CN1c2c([nH]c(N)nc2=O)NC[C@@H]1CNc1ccc(C(=O)N[C@@H](CCC(=O)[O-])C(=O)[O-])cc1.[Ca+2] [Type III, calcium salt of 5-methyl-(6S)-tetrahydrofolic acid]							1.5	1.0
